ChEMBL document CHEMBL1139489, “Design and NMR characterization of active analogues of compstatin containing non-natural amino acids” (J Med Chem, 2005)

molecular target: Complement C3 (Homo sapiens, UniProt P01024); experiment: Inhibitory concentration for human complement component C3 activation
Sequence (P01024 23-667 limits assumed): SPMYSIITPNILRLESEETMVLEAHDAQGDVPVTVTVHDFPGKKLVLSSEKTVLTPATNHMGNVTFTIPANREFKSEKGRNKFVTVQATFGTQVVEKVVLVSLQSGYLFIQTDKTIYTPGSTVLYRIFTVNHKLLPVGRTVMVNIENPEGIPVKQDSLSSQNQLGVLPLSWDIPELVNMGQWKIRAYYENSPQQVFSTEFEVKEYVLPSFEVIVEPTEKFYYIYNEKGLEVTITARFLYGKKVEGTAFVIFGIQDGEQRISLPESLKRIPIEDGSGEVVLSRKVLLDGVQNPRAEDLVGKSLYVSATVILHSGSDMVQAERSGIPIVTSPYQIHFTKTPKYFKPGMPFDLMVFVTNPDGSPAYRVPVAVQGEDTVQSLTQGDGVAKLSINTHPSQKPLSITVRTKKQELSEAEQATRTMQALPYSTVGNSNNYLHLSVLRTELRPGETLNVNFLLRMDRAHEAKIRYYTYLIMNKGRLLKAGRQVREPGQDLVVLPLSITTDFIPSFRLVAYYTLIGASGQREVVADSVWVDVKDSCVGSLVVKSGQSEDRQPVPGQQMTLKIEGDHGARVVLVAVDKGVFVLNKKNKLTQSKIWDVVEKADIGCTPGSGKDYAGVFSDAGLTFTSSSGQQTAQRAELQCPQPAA
Sequence (P01024 672-1663 limits assumed): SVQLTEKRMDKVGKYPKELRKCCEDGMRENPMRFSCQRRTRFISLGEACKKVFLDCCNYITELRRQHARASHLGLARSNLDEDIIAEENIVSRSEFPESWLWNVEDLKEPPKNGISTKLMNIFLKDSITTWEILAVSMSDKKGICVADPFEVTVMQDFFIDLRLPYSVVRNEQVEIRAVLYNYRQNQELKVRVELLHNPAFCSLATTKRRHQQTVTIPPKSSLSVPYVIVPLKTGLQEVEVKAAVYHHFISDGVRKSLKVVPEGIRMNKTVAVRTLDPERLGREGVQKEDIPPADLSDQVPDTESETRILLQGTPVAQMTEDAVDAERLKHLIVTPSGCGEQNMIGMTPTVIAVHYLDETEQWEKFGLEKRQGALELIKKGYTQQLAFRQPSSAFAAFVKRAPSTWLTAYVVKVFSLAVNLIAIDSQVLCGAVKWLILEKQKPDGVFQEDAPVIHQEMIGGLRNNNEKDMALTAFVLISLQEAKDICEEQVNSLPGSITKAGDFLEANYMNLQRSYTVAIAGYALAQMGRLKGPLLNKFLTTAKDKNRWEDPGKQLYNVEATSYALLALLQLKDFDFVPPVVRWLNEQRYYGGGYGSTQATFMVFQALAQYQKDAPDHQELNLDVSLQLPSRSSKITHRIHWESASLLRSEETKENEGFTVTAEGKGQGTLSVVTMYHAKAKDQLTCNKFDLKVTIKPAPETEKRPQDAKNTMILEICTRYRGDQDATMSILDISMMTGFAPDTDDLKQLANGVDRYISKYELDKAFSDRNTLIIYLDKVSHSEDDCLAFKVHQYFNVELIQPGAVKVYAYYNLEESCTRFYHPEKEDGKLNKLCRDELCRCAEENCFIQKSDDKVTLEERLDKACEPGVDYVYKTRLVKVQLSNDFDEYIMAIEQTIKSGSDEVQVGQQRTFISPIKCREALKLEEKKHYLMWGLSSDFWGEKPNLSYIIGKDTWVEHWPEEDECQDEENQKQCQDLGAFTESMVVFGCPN

In order of falling IC50:
1. CC[C@H](C)[C@H](NC(C)=O)C(=O)N[C@H]1CSSC[C@@H](C(=O)N[C@H](C(=O)O)[C@@H](C)O)NC(=O)[C@H](CCCN=C(N)N)NC(=O)[C@H](Cc2c[nH]cn2)NC(=O)[C@H](C)NC(=O)CNC(=O)[C@H](Cc2c[nH]c3ccccc23)NC(=O)[C@H](CC(=O)O)NC(=O)[C@H](CCC(N)=O)NC(=O)[C@H](CC2CNc3ccccc32)NC(=O)[C@H](C(C)C)NC1=O (stereo partly drawn)  10.2 µM
2. CC[C@H](C)[C@H](NC(C)=O)C(=O)N[C@H]1CSSC[C@@H](C(=O)N[C@H](C(N)=O)[C@@H](C)O)NC(=O)[C@H](CCCNC(=N)N)NC(=O)[C@H](Cc2cnc[nH]2)NC(=O)[C@H](Cc2cnc[nH]2)NC(=O)CNC(=O)[C@H](Cc2c[nH]c3ccccc23)NC(=O)[C@H](CC(=O)O)NC(=O)[C@H](CCC(N)=O)NC(=O)[C@H](Cc2c[nH]c3ccccc23)NC(=O)[C@H](C(C)C)NC1=O  2.2 µM
3. CC[C@H](C)[C@H](NC(C)=O)C(=O)N[C@H]1CSSC[C@@H](C(=O)N[C@H](C(N)=O)[C@@H](C)O)NC(=O)[C@H](CCCNC(=N)N)NC(=O)[C@H](Cc2cnc[nH]2)NC(=O)[C@H](C)NC(=O)CNC(=O)[C@H](Cc2c[nH]c3ccccc23)NC(=O)[C@H](CC(=O)O)NC(=O)[C@H](CCC(N)=O)NC(=O)[C@H](Cc2ccc(C(=O)c3ccccc3)cc2)NC(=O)[C@H](C(C)C)NC1=O  0.6 µM
